Values joined by “and” are separate entries in the source; they are usually repeats but may differ in a detail not shown here. Equal values may be shown once. Read-outs that look alike come from different tables or passages of the source.
Assays:
E. Coli 25922 = test: MIC testing (MIC/MBC), broth dilution; assay type: cell-based; details: delivery agents with Moenomycin A at 1:2 ratio
Experimental: (§1) • The bacteria were grown in 5 ml of Mueller Hinton Broth overnight at 37° C. • The inhibitor was tested on its own or in conjunction with a cell penetrating peptide (CPP). • When tested with a CPP they were incubated together at room temperature for 1 hour before use. • Delivery agents (Compound 5, Compound 6, and 7) were used at a 1:2 ratio.

B. Subtilis 2410 = test: MIC testing (MIC/MBC), broth dilution; assay type: cell-based; details: delivery agents with Moenomycin A at 1:2 ratio
Experimental: as §1

A. Baumannii 19606 = test: MIC testing (MIC/MBC), broth dilution; assay type: cell-based; details: runs A, B, C, delivery agents with Moenomycin A at 1:2 ratio; for MIC: 24 hours at 37° C.
Experimental: as §1

K. Pneumonia 700603 = test: MIC testing (MIC/MBC), broth dilution; assay type: cell-based; details: runs A, B, C, delivery agents with Moenomycin A at 1:2 ratio; for MIC: 24 hours at 37° C.
Experimental: as §1

P. Aeruginosa 27853 = test: MIC testing (MIC/MBC), broth dilution; assay type: cell-based; details: runs A, B, C, delivery agents with Moenomycin A at 1:2 ratio; for MIC: 24 hours at 37° C.
Experimental: as §1

HeLa cells = test: In vitro toxicity testing in HeLa cells; assay type: cell-based
tumor cell line 786-O = test: In vitro cell viability in tumor cell line 786-O; assay type: cell-based; details: initial in vitro testing
mammalian cells [1] = tested on: mammalian cells
mammalian cells [2] = test: Mammalian cytotoxicity (cell type not stated)
[3] = Escherichia coli, read-out: MBC
[4] = Escherichia coli, read-out: MIC
[5] = Bacillus subtilis, read-out: MBC
[6] = Bacillus subtilis, read-out: MIC
[7] = Acinetobacter baumannii, read-out: MIC
[8] = Pseudomonas aeruginosa, read-out: MIC
[9] = Pseudomonas aeruginosa, read-out: MBC

Row | MIC (E. Coli 25922; [4]) | MIC (B. Subtilis 2410; [6]) | MIC (A. Baumannii 19606; [7]) | MIC (K. Pneumonia 700603) | MIC (P. Aeruginosa 27853) | MIC (P. Aeruginosa 27853; [8]) | MIC (A. Baumannii 19606) | Compound | MBC (E. Coli 25922; [3]) | MBC (B. Subtilis 2410; [5]) | MBC (A. Baumannii 19606) | MBC (K. Pneumonia 700603) | MBC (P. Aeruginosa 27853) | MBC (P. Aeruginosa 27853; [9]) | other results
1 | 8 µg/mL | 128 µg/mL | 128 µg/mL | Growth in all wells | Growth in all wells |  |  | CC1(C)S[C@@H]2[C@H](NC(=O)[C@H](N)c3ccccc3)C(=O)N2[C@H]1C(=O)O [Ampicillin, reference compound] | 8 µg/mL | 256 µg/mL | Growth in all wells | Growth in all wells | Growth in all wells |  | 
2 | 64 µg/mL | 32 µg/mL |  | 64 µg/mL |  | 256 µg/mL |  | CCCCCCCCCCCCCCCCCC(=O)OC(COCC(COC(=O)NCCCN(C)CCCN)OC(=O)NCCCN(C)CCCN)COCC(COC(=O)NCCCN(C)CCCN)OC(=O)NCCCN(C)CCCN (centres unmarked) [Compound 5] | 128 µg/mL | 32 µg/mL |  | 64 µg/mL |  | 256 µg/mL | MIC (K. Pneumonia 700603; Klebsiella pneumoniae, 24 h, read-out: MIC): 128 µg/mL; MBC (K. Pneumonia 700603; Klebsiella pneumoniae, read-out: MBC): 128 µg/mL
3 | 256 µg/mL | 32 µg/mL | 256 µg/mL |  |  | 256 µg/mL |  | CCCCCCCCCCCCCCCCCC(=O)OC(COC(COCC(COC(=O)NCCCN(C)CCCN)OC(=O)NCCCN(C)CCCN)COCC(COC(=O)NCCCN(C)CCCN)OC(=O)NCCCN(C)CCCN)COC(COCC(COC(=O)NCCCN(C)CCCN)OC(=O)NCCCN(C)CCCN)COCC(COC(=O)NCCCN(C)CCCN)OC(=O)NCCCN(C)CCCN (centres unmarked) [Compound 6] |  | 32 µg/mL |  |  |  | 256 µg/mL | concentration at which toxic (HeLa cells): 20000 ng/mL; MBC (A. Baumannii 19606; Acinetobacter baumannii, read-out: MBC): 256 µg/mL; effect on cell viability (tumor cell line 786-O): did not affect the cell viability
4 |  |  |  | Growth in all wells | Growth in all wells |  | Growth in all wells | N=C(N)NCCNC(=O)CCN(CCC(=O)NCCNC(=N)N)CCN(CCC(=O)NCCNC(=N)N)CCC(=O)NCCNC(=N)N [Compound 7, 3,3’,3”,3”’-(Ethane-1,2-Divlbis(Azanetrivl)) Tetrakis(N-(2-Guanidinoethyl)Propanamide)] |  |  | Growth in all wells | Growth in all wells | Growth in all wells |  | 
5 |  |  |  |  |  |  |  | C#CC(=O)N[C@@H](CCCNC(=N)N)C(=O)N[C@@H](CCCNC(=N)N)C(=O)N[C@@H](CCCNC(=N)N)C(=O)N[C@@H](CCCNC(=N)N)C(=O)N[C@@H](CCCNC(=N)N)C(=O)N[C@@H](CCCNC(=N)N)C(=O)N[C@@H](CCCNC(=N)N)C(=O)N[C@@H](CCCNC(=N)N)C(N)=O [Compound 8] |  |  |  |  |  |  | concentration up to which no toxicity was observed (mammalian cells [1]): up to 110 µg/mL
6 |  |  |  | 64 µg/mL | 256 µg/mL |  | 4 µg/mL and 8 µg/mL | C=C(C/C=C(\C)CCC=C(C)C)CCC(C)(C)/C=C/CC/C(C)=C/CO[C@@H](COP(=O)(O)O[C@H]1O[C@H](C(N)=O)[C@@](C)(O)[C@H](OC(N)=O)[C@H]1O[C@@H]1O[C@H](CO[C@@H]2O[C@H](CO)[C@@H](O)[C@H](O)[C@H]2O)[C@@H](O[C@@H]2O[C@H](C)[C@@H](O[C@@H]3O[C@H](C(=O)NC4=C(O)CCC4=O)[C@H](O)[C@H](O)[C@H]3O)[C@H](O)[C@H]2NC(C)=O)[C@H](O)[C@H]1NC(C)=O)C(=O)O [Moenomycin A, reference compound] |  |  | 8 µg/mL | 128 µg/mL | Growth in all wells |  | MBC (E. Coli 25922): 128 µg/mL; MIC (E. Coli 25922): 32 µg/mL; MBC (B. Subtilis 2410): Growth in all wells; MIC (B. Subtilis 2410): 256 µg/mL; concentration up to which no toxicity was observed (mammalian cells [2]): up to 10 mg/mL
